# Laboratory results from ChEMBL document CHEMBL1201862, “PubChem BioAssay data set” (2004).
#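 Values below derive from 48-hour exposures of cells grown in 96-well plates, with endpoints linearly interpolated between the two concentrations bracketing the appropriate inhibition level. Here, GI50 denotes the concentration required for 50% inhibition of growth.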 Active and inactive are the calls of the source. Cut-off read from the data, not from the text of the source: active = GI50 up to about 1.1 µM and inactive = higher.
# How the values were obtained:
# Assay in all cases: growth of human tumour cells (NCI), 48 h
# A549 = tested on: A549
# CCRF-CEM = tested on: CCRF-CEM
# K562 = tested on: K562
# SNB-19 = tested on: SNB-19
# LOX IMVI = tested on: LOX IMVI
# A498 = tested on: A498
# M14 = tested on: M14
# SK-MEL-5 = tested on: SK-MEL-5
# NCI-H23 = tested on: NCI-H23
# NCI/ADR-RES = tested on: NCI/ADR-RES
# U-251 = tested on: U-251
# HCT-15 = tested on: HCT-15
# 786-0 = tested on: 786-0
# Malme-3M = tested on: Malme-3M
# OVCAR-8 = tested on: OVCAR-8
# CAKI-1 = tested on: CAKI-1
# SR = tested on: SR
# Hs-578T = tested on: Hs-578T
# MDA-N = tested on: MDA-N
# HCT-116 = tested on: HCT-116
# SN12C = tested on: SN12C
# ACHN = tested on: ACHN
# MDA-MB-435 = tested on: MDA-MB-435
# DU-145 = tested on: DU-145
# UACC-257 = tested on: UACC-257
# HOP-92 = tested on: HOP-92
# OVCAR-5 = tested on: OVCAR-5
# MOLT-4 = tested on: MOLT-4
# SK-MEL-2 = tested on: SK-MEL-2
# T47D = tested on: T47D
# OVCAR-3 = tested on: OVCAR-3
# TK-10 = tested on: TK-10
# SK-MEL-28 = tested on: SK-MEL-28
# IGROV-1 = tested on: IGROV-1
# PC-3 = tested on: PC-3
# SW-620 = tested on: SW-620
# SF-539 = tested on: SF-539
# HL-60 = tested on: HL-60
# COLO 205 = tested on: COLO 205
# UO-31 = tested on: UO-31
# KM12 = tested on: KM12
# RPMI-8226 = tested on: RPMI-8226
# NCI-H522 = tested on: NCI-H522
# MDA-MB-231 = tested on: MDA-MB-231
# UACC-62 = tested on: UACC-62
# SF-295 = tested on: SF-295
# HT-29 = tested on: HT-29
# BT-549 = tested on: BT-549
# OVCAR-4 = tested on: OVCAR-4
# EKVX = tested on: EKVX
# NCI-H460 = tested on: NCI-H460
# HCC 2998 = tested on: HCC 2998
# NCI-H226 = tested on: NCI-H226
# SF-268 = tested on: SF-268
# SK-OV-3 = tested on: SK-OV-3
# SNB-75 = tested on: SNB-75
# MCF7 = tested on: MCF7
# RXF 393 = tested on: RXF 393
# HOP-62 = tested on: HOP-62
smiles,measurement,setting,value
COC(=O)c1ccc(S)c(S(=O)(=O)Nc2nc(N)n[nH]2)c1,GI50,A549,> 100 µM (inactive)
same,GI50,CCRF-CEM,> 100 µM (inactive)
same,GI50,K562,> 100 µM (inactive)
same,GI50,SNB-19,> 100 µM (inactive)
same,GI50,LOX IMVI,> 100 µM (inactive)
same,GI50,A498,> 100 µM (inactive)
same,GI50,M14,> 100 µM (inactive)
same,GI50,SK-MEL-5,> 100 µM (inactive)
same,GI50,NCI-H23,> 100 µM (inactive)
same,GI50,NCI/ADR-RES,> 100 µM (inactive)
same,GI50,U-251,> 100 µM (inactive)
same,GI50,HCT-15,> 100 µM
same,GI50,786-0,> 100 µM (inactive)
same,GI50,Malme-3M,> 100 µM (inactive)
same,GI50,OVCAR-8,> 100 µM (inactive)
same,GI50,CAKI-1,> 100 µM (inactive)
same,GI50,SR,> 100 µM (inactive)
same,GI50,Hs-578T,> 100 µM (inactive)
same,GI50,MDA-N,> 100 µM (inactive)
same,GI50,HCT-116,> 100 µM (inactive)
same,GI50,SN12C,> 100 µM (inactive)
same,GI50,ACHN,> 100 µM (inactive)
same,GI50,MDA-MB-435,> 100 µM (inactive)
same,GI50,DU-145,> 100 µM (inactive)
same,GI50,UACC-257,> 100 µM (inactive)
same,GI50,HOP-92,> 100 µM (inactive)
same,GI50,OVCAR-5,> 100 µM (inactive)
same,GI50,MOLT-4,> 100 µM (inactive)
same,GI50,SK-MEL-2,> 100 µM (inactive)
same,GI50,T47D,> 100 µM (inactive)
same,GI50,OVCAR-3,> 100 µM (inactive)
same,GI50,TK-10,> 100 µM (inactive)
same,GI50,SK-MEL-28,> 100 µM (inactive)
same,GI50,IGROV-1,> 100 µM (inactive)
same,GI50,PC-3,> 100 µM (inactive)
same,GI50,SW-620,> 100 µM (inactive)
same,GI50,SF-539,> 100 µM (inactive)
same,GI50,HL-60,> 100 µM (inactive)
same,GI50,COLO 205,> 100 µM (inactive)
same,GI50,UO-31,> 100 µM (inactive)
same,GI50,KM12,> 100 µM (inactive)
same,GI50,RPMI-8226,> 100 µM (inactive)
same,GI50,NCI-H522,> 100 µM (inactive)
same,GI50,MDA-MB-231,> 100 µM (inactive)
same,GI50,UACC-62,> 100 µM (inactive)
same,GI50,SF-295,> 100 µM (inactive)
same,GI50,HT-29,> 100 µM (inactive)
same,GI50,BT-549,> 100 µM (inactive)
same,GI50,OVCAR-4,> 100 µM (inactive)
same,GI50,EKVX,> 100 µM (inactive)
same,GI50,NCI-H460,> 100 µM (inactive)
C/C=C1/C[C@@H](C)[C@@](C)(O)C(=O)OCC2=CC[N+]3([O-])CC[C@@H](OC1=O)[C@@H]23 (some centres undefined) [SENECIONINE N-OXIDE],GI50,A549,> 100 µM (inactive)
same,GI50,CCRF-CEM,> 100 µM (inactive)
same,GI50,K562,0.0482 µM (active)
same,GI50,SNB-19,> 100 µM (inactive)
same,GI50,LOX IMVI,> 100 µM (inactive)
same,GI50,A498,> 100 µM (inactive)
same,GI50,M14,> 100 µM (inactive)
same,GI50,SK-MEL-5,> 100 µM (inactive)
same,GI50,NCI-H23,> 100 µM (inactive)
same,GI50,NCI/ADR-RES,> 100 µM (inactive)
same,GI50,U-251,> 100 µM (inactive)
same,GI50,HCT-15,> 100 µM
same,GI50,786-0,> 100 µM (inactive)
same,GI50,Malme-3M,94.6 µM (inactive)
same,GI50,OVCAR-8,> 100 µM (inactive)
same,GI50,CAKI-1,> 100 µM (inactive)
same,GI50,Hs-578T,> 100 µM (inactive)
same,GI50,MDA-N,> 100 µM (inactive)
same,GI50,HCT-116,> 100 µM (inactive)
same,GI50,SN12C,> 100 µM (inactive)
same,GI50,ACHN,> 100 µM (inactive)
same,GI50,MDA-MB-435,> 100 µM (inactive)
same,GI50,DU-145,> 100 µM (inactive)
same,GI50,UACC-257,> 100 µM (inactive)
same,GI50,HOP-92,> 100 µM (inactive)
same,GI50,OVCAR-5,> 100 µM (inactive)
same,GI50,MOLT-4,> 100 µM (inactive)
same,GI50,SK-MEL-2,> 100 µM (inactive)
same,GI50,T47D,> 100 µM (inactive)
same,GI50,HCC 2998,> 100 µM (inactive)
same,GI50,NCI-H226,> 100 µM (inactive)
same,GI50,OVCAR-3,> 100 µM (inactive)
same,GI50,SF-268,> 100 µM (inactive)
same,GI50,TK-10,> 100 µM (inactive)
same,GI50,SK-MEL-28,> 100 µM (inactive)
same,GI50,IGROV-1,> 100 µM (inactive)
same,GI50,PC-3,> 100 µM (inactive)
same,GI50,SK-OV-3,> 100 µM (inactive)
same,GI50,SW-620,> 100 µM (inactive)
same,GI50,SF-539,> 100 µM (inactive)
same,GI50,HL-60,> 100 µM (inactive)
same,GI50,COLO 205,> 100 µM (inactive)
same,GI50,UO-31,> 100 µM (inactive)
same,GI50,KM12,> 100 µM (inactive)
same,GI50,NCI-H522,> 100 µM (inactive)
same,GI50,SNB-75,> 100 µM (inactive)
same,GI50,MDA-MB-231,> 100 µM (inactive)
same,GI50,UACC-62,> 100 µM (inactive)
same,GI50,SF-295,> 100 µM (inactive)
same,GI50,HT-29,> 100 µM (inactive)
same,GI50,BT-549,> 100 µM (inactive)
same,GI50,OVCAR-4,> 100 µM (inactive)
same,GI50,MCF7,> 100 µM (inactive)
same,GI50,EKVX,> 100 µM (inactive)
same,GI50,NCI-H460,> 100 µM (inactive)
C(=N\c1ccc2c(c1)Cc1ccccc1-2)/c1ccccn1,GI50,A549,> 100 µM (inactive)
same,GI50,CCRF-CEM,23 µM (inactive)
same,GI50,K562,30.9 µM (inactive)
same,GI50,SNB-19,> 100 µM (inactive)
same,GI50,LOX IMVI,57.1 µM (inactive)
same,GI50,A498,44.3 µM (inactive)
same,GI50,M14,> 100 µM (inactive)
same,GI50,SK-MEL-5,61.5 µM (inactive)
same,GI50,NCI-H23,74.8 µM (inactive)
same,GI50,NCI/ADR-RES,91.2 µM (inactive)
same,GI50,U-251,63.1 µM (inactive)
same,GI50,HCT-15,48.3 µM
same,GI50,786-0,34.8 µM (inactive)
same,GI50,Malme-3M,> 100 µM (inactive)
same,GI50,OVCAR-8,> 100 µM (inactive)
same,GI50,CAKI-1,> 100 µM (inactive)
same,GI50,SR,24.9 µM (inactive)
same,GI50,Hs-578T,92.3 µM (inactive)
same,GI50,MDA-N,28.9 µM (inactive)
same,GI50,HCT-116,30.5 µM (inactive)
same,GI50,SN12C,28.4 µM (inactive)
same,GI50,ACHN,> 100 µM (inactive)
same,GI50,MDA-MB-435,77.8 µM (inactive)
same,GI50,DU-145,88.3 µM (inactive)
same,GI50,UACC-257,27.1 µM (inactive)
same,GI50,HOP-92,> 100 µM (inactive)
same,GI50,OVCAR-5,> 100 µM (inactive)
same,GI50,MOLT-4,23 µM (inactive)
same,GI50,SK-MEL-2,43.3 µM (inactive)
same,GI50,T47D,59.4 µM (inactive)
same,GI50,NCI-H226,> 100 µM (inactive)
same,GI50,OVCAR-3,61.7 µM (inactive)
same,GI50,SF-268,76.4 µM (inactive)
same,GI50,TK-10,42.7 µM (inactive)
same,GI50,RXF 393,> 100 µM (inactive)
same,GI50,SK-MEL-28,> 100 µM (inactive)
same,GI50,IGROV-1,> 100 µM (inactive)
same,GI50,PC-3,38.7 µM (inactive)
same,GI50,SW-620,44.6 µM (inactive)
same,GI50,HOP-62,> 100 µM (inactive)
same,GI50,UO-31,> 100 µM (inactive)
same,GI50,KM12,89.3 µM (inactive)
same,GI50,RPMI-8226,> 10 µM (inactive)
same,GI50,NCI-H522,26.7 µM (inactive)
same,GI50,SNB-75,67.6 µM (inactive)
same,GI50,MDA-MB-231,68.2 µM (inactive)
same,GI50,UACC-62,89.3 µM (inactive)
same,GI50,SF-295,> 100 µM (inactive)
same,GI50,HT-29,63.1 µM (inactive)
same,GI50,BT-549,81.8 µM (inactive)
same,GI50,OVCAR-4,> 100 µM (inactive)
same,GI50,EKVX,28.8 µM (inactive)
same,GI50,NCI-H460,60.3 µM (inactive)
